“And” between values parts separate entries of the source, which are not always exact repeats. Equal entries are not always repeated. Toxic doses and inconclusive results are not listed. Square brackets hold non-standard residues; d marks the D form. Peptide text beside a SMILES is read from it. * marks the point of attachment. ξ: configuration not given here. Cbz = O=C(OCc1ccccc1)*; ξL = CC(C)CC(N)C(=O)O
Test system: L1210 leukemia ip in BDF1 mice, survival T/C
Test: NCI In Vivo Anticancer Drug Screen. Data for tumor model L1210 Leukemia (intraperitoneal) in B6D2F1 (BDF1) mice
Details: endpoint: mean survival time, higher = longer survival
How it was run: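 In this screen, tumor-bearing mice given compound are compared to those given vehicle, and their survival values are reported as a treated-to-control quotient.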

[1] = dose: 100.0 mg/kg/injection, schedule: Q01DX001 (ip), vehicle: other
[2] = dose: 200.0 mg/kg/injection, schedule: Q01DX001 (ip), vehicle: other
[3] = dose: 100.0 mg/kg/injection, schedule: Q01DX001 (ip), vehicle: saline
[4] = dose: 200.0 mg/kg/injection, schedule: Q01DX001 (ip), vehicle: saline
[5] = dose: 400.0 mg/kg/injection, schedule: Q01DX001 (ip), vehicle: saline
[6] = dose: 200.0 mg/kg/injection, schedule: Q04DX002 (ip), vehicle: Klucel (hydroxypropylcellulose) (HPC)
[7] = dose: 50.0 mg/kg/injection, schedule: Q01DX009 (ip), vehicle: saline
[8] = dose: 100.0 mg/kg/injection, schedule: Q01DX009 (ip), vehicle: saline
[9] = dose: 100.0 mg/kg/injection, schedule: Q04DX003 (ip), vehicle: saline
[10] = dose: 200.0 mg/kg/injection, schedule: Q01DX009 (ip), vehicle: saline
[11] = dose: 200.0 mg/kg/injection, schedule: Q04DX003 (ip), vehicle: saline
[12] = dose: 100.0 mg/kg/injection, schedule: Q04DX003 (ip), vehicle: saline with Tween-80
[13] = dose: 200.0 mg/kg/injection, schedule: Q04DX003 (ip), vehicle: saline with Tween-80
[14] = dose: 400.0 mg/kg/injection, schedule: Q04DX003 (ip), vehicle: saline with Tween-80
[15] = dose: 100.0 mg/kg/injection, schedule: Q04DX003 (ip), vehicle: Klucel (hydroxypropylcellulose) (HPC)
[16] = dose: 200.0 mg/kg/injection, schedule: Q04DX003 (ip), vehicle: Klucel (hydroxypropylcellulose) (HPC)
[17] = dose: 400.0 mg/kg/injection, schedule: Q04DX003 (ip), vehicle: Klucel (hydroxypropylcellulose) (HPC)

## O=C(O)CC[S-].[Ag+]
dose: 50.0 mg/kg/injection, schedule: Q04DX003 (ip), vehicle: other
  T/C: 94 % of control
dose: 75.0 mg/kg/injection, schedule: Q01DX009 (ip), vehicle: other
  T/C: 98 % of control
[1]
  T/C: 91 % of control
dose: 100.0 mg/kg/injection, schedule: Q04DX003 (ip), vehicle: other
  T/C: 89 % of control
dose: 150.0 mg/kg/injection, schedule: Q01DX009 (ip), vehicle: other
  T/C: 98 % of control
[2]
  T/C: 91 % of control
dose: 200.0 mg/kg/injection, schedule: Q04DX003 (ip), vehicle: other
  T/C: 91 % of control
dose: 300.0 mg/kg/injection, schedule: Q01DX009 (ip), vehicle: other
  T/C: 109 % of control

## CCSCC1OC2OC(C)(C)OC2C1O (stereo not given)
[3]
  T/C: 97 % of control
[4]
  T/C: 111 % of control
[5]
  T/C: 97 % of control

## COC(=O)C1(C)CCCC2(C)C3CCC4(C)CC3(CCC12)CC4S(=O)(=O)c1ccc(C)cc1 (stereo not given)
dose: 12.5 mg/kg/injection, schedule: Q04DX002 (ip), vehicle: Klucel (hydroxypropylcellulose) (HPC)
  T/C: 100 % of control
dose: 25.0 mg/kg/injection, schedule: Q04DX002 (ip), vehicle: Klucel (hydroxypropylcellulose) (HPC)
  T/C: 89 % of control
dose: 50.0 mg/kg/injection, schedule: Q04DX002 (ip), vehicle: Klucel (hydroxypropylcellulose) (HPC)
  T/C: 95 % of control and 106 % of control
[6]
  T/C: 86 % of control

## CCC1NC(C(=O)O)CS1 (stereo not given)
[3]
  T/C: 96 % of control
[4]
  T/C: 100 % of control
[5]
  T/C: 89 % of control

## COC(=O)CNC(=O)C(CC(C)C)NC(=O)OCc1ccccc1 (stereo not given) (Cbz-[ξL]-Gly-OMe)
[7]
  T/C: 98 % of control
dose: 50.0 mg/kg/injection, schedule: Q04DX003 (ip), vehicle: saline
  T/C: 94 % of control
[3]
  T/C: 97 % of control
[8]
  T/C: 100 % of control
[9]
  T/C: 91 % of control
[4]
  T/C: 94 % of control
[10]
  T/C: 98 % of control
[11]
  T/C: 96 % of control

## CNC(=O)Nc1ccccc1
[12]
  T/C: 94 % of control
[13]
  T/C: 90 % of control
[14]
  T/C: 94 % of control

## O=[N+]([O-])c1ccc(OCCCCOc2ccccc2)cc1
[8]
  T/C: 110 % of control
[10]
  T/C: 96 % of control
dose: 400.0 mg/kg/injection, schedule: Q01DX009 (ip), vehicle: saline
  T/C: 92 % of control

## CCCCCCc1cc(N=Nc2ccc(S(=O)(=O)Nc3cc(C)nc(C)n3)cc2)c(O)cc1O
dose: 100.0 mg/kg/injection, schedule: Q01DX001 (ip), vehicle: carboxymethylcellulose (CMC)
  T/C: 101 % of control
dose: 200.0 mg/kg/injection, schedule: Q01DX001 (ip), vehicle: carboxymethylcellulose (CMC)
  T/C: 95 % of control
dose: 400.0 mg/kg/injection, schedule: Q01DX001 (ip), vehicle: carboxymethylcellulose (CMC)
  T/C: 95 % of control

## C=C(Br)C(C)(C)C
[7]
  T/C: 101 % of control
[8]
  T/C: 101 % of control
[10]
  T/C: 101 % of control

## CC(Br)(CBr)CCC(C)(Br)CBr (stereo not given)
[15]
  T/C: 94 % of control
[16]
  T/C: 96 % of control
[17]
  T/C: 91 % of control

## NC(=S)N/N=C\c1ncnc2nc[nH]c12
dose: 0.5 mg/kg/injection, schedule: Q03HX024 (ip), vehicle: saline
  T/C: 111 % of control
dose: 1.0 mg/kg/injection, schedule: Q03HX024 (ip), vehicle: saline
  T/C: 121 % of control
dose: 5.0 mg/kg/injection, schedule: Q01DX001 (ip), vehicle: saline
  T/C: 114 % of control
dose: 8.0 mg/kg/injection, schedule: Q03HX024 (ip), vehicle: saline
  T/C: 150 % of control
dose: 10.0 mg/kg/injection, schedule: Q01DX001 (ip), vehicle: saline
  T/C: 118 % of control
dose: 20.0 mg/kg/injection, schedule: Q01DX001 (ip), vehicle: saline
  T/C: 114 % of control

## COc1ccc2cc1Oc1ccc(cc1)CC1c3cc(c(OC)cc3CCN1C)Oc1c(OC)c(OC)c(OC)c3c1C(C2)N(C)CC3 (stereo not given)
dose: 100.0 mg/kg/injection, schedule: Q04DX002 (ip), vehicle: Klucel (hydroxypropylcellulose) (HPC)
  T/C: 102 % of control
[6]
  T/C: 91 % of control
dose: 400.0 mg/kg/injection, schedule: Q04DX002 (ip), vehicle: Klucel (hydroxypropylcellulose) (HPC)
  T/C: 94 % of control

## Cc1ccc(S(N)(=O)=O)cc1S(N)(=O)=O
dose: 100.0 mg/kg/injection, schedule: Q01DX001 (ip), vehicle: Klucel (hydroxypropylcellulose) (HPC)
  T/C: 94 % of control
dose: 200.0 mg/kg/injection, schedule: Q01DX001 (ip), vehicle: Klucel (hydroxypropylcellulose) (HPC)
  T/C: 92 % of control
dose: 400.0 mg/kg/injection, schedule: Q01DX001 (ip), vehicle: Klucel (hydroxypropylcellulose) (HPC)
  T/C: 105 % of control

## CCCCC(CC)COc1ccc(N=C(N)N=C(N)N)cc1 (stereo not given)
dose: 100.0 mg/kg/injection, schedule: Q04DX002 (ip), vehicle: saline with Tween-80
  T/C: 105 % of control

## Cc1ccc(C2NC(=O)N3C(c4ccc(C)cc4)NC(=O)N23)cc1 (stereo not given)
dose: 100.0 mg/kg/injection, schedule: Q01DX009 (ip), vehicle: gum acacia
  T/C: 99 % of control
dose: 100.0 mg/kg/injection, schedule: Q04DX003 (ip), vehicle: gum acacia
  T/C: 99 % of control
dose: 200.0 mg/kg/injection, schedule: Q01DX009 (ip), vehicle: gum acacia
  T/C: 102 % of control
dose: 200.0 mg/kg/injection, schedule: Q04DX003 (ip), vehicle: gum acacia
  T/C: 87 % of control
dose: 400.0 mg/kg/injection, schedule: Q01DX009 (ip), vehicle: gum acacia
  T/C: 96 % of control
dose: 400.0 mg/kg/injection, schedule: Q04DX003 (ip), vehicle: gum acacia
  T/C: 92 % of control

## COC(OC)c1[nH]c(=S)[nH]c(=O)c1Cc1ccc(C)c(C)c1
dose: 100.0 mg/kg/injection, schedule: Q01DX009 (ip), vehicle: saline with Tween-80
  T/C: 104 % of control
[12]
  T/C: 94 % of control
dose: 200.0 mg/kg/injection, schedule: Q01DX009 (ip), vehicle: saline with Tween-80
  T/C: 96 % of control
[13]
  T/C: 96 % of control
dose: 400.0 mg/kg/injection, schedule: Q01DX009 (ip), vehicle: saline with Tween-80
  T/C: 87 % of control
[14]
  T/C: 100 % of control

## O=C1CCC(=O)N1
[15]
  T/C: 103 % of control
[16]
  T/C: 102 % of control
[17]
  T/C: 100 % of control

## C/C(=N\Nc1c(F)c(F)c(F)c(F)c1F)c1ccccc1
dose: 100.0 mg/kg/injection, schedule: Q01DX001 (ip), vehicle: saline with Tween-80
  T/C: 105 % of control
dose: 200.0 mg/kg/injection, schedule: Q01DX001 (ip), vehicle: saline with Tween-80
  T/C: 96 % of control
dose: 400.0 mg/kg/injection, schedule: Q01DX001 (ip), vehicle: saline with Tween-80
  T/C: 100 % of control

## CCOC(=O)C1(C(=O)OCC)C(C)CC(OCC)N1C(=O)c1cc2c(cc1[N+](=O)[O-])OCO2 (stereo not given)
dose: 25.0 mg/kg/injection, schedule: Q04DX003 (ip), vehicle: Klucel (hydroxypropylcellulose) (HPC)
  T/C: 92 % of control
dose: 50.0 mg/kg/injection, schedule: Q04DX003 (ip), vehicle: Klucel (hydroxypropylcellulose) (HPC)
  T/C: 89 % of control
[15]
  T/C: 94 % of control

## CC(C)N=Cc1ccccc1O.CC(C)N=Cc1ccccc1O.[Cu]
dose: 75.0 mg/kg/injection, schedule: Q01DX001 (ip), vehicle: other
  T/C: 113 % of control

## S=C1NCC2CCc3c(ccc4ccccc34)N12 (stereo not given)
[1]
  T/C: 97 % of control
[2]
  T/C: 90 % of control
dose: 400.0 mg/kg/injection, schedule: Q01DX001 (ip), vehicle: other
  T/C: 95 % of control

## CC(C)C(O)(C(=O)NN)C(=O)NN
dose: 100.0 mg/kg/injection, schedule: Q01DX009 (ip), vehicle: Klucel (hydroxypropylcellulose) (HPC)
  T/C: 100 % of control
[9]
  T/C: 105 % of control
dose: 200.0 mg/kg/injection, schedule: Q01DX009 (ip), vehicle: Klucel (hydroxypropylcellulose) (HPC)
  T/C: 90 % of control
[11]
  T/C: 96 % of control
dose: 400.0 mg/kg/injection, schedule: Q01DX009 (ip), vehicle: Klucel (hydroxypropylcellulose) (HPC)
  T/C: 93 % of control
dose: 400.0 mg/kg/injection, schedule: Q04DX003 (ip), vehicle: saline
  T/C: 103 % of control

Source: PubChem BioAssay AID248 (DTP/NCI, 2004)
